Here are results for four molecules from patent US8586573B2, “N-(Aminoheteroaryl)-1H-indole-2-carboxamide derivatives, and preparation and therapeutic application thereof” (Sanofi, priority 2006, dated 2013).

For one data set, the target named is T1, TRPV1 receptor (Rattus norvegicus, UniProt O35433).
T1 construct: The neurons of the DRG naturally express the TRPV1 receptor; endogenous in cells; host or cells: primary culture of newborn rat dorsal root ganglion neurons
Briefly: Inhibition of the current induced by capsaicin on rat DRGs (whole-cell patch-clamp). In kind it is cell-based. To be noted: DRG neuron, inhibition of control capsaicin (1 microM) response, newborn rat DRG neurons; for inhibition at 0.01 µM: compound at 10 nM; for inhibition at 0.001 µM: compound at 1 nM. The method, then: Test for Inhibition of the Current Induced by Capsaicin on Rat DRGs
• Primary culture of rat dorsal root ganglion (DRG) cells:
The neurons of the DRG naturally express the TRPV1 receptor.
Newborn rat DRG primary cultures are prepared from one-day-old rat pups. Briefly, after dissection, the ganglia are trypsinized and the cells are mechanically dissociated by controlled trituration. The cells are resuspended in an Eagle's basal culture medium containing 10% of foetal calf serum, 25 mM KCl, 2 mM glutamine, 100 μg/ml gentamycin and 50 ng/ml of NGF, and then deposited onto laminin-coated glass cover slips (0.25×10^6 cells per cover slip) which are then placed in 12-well Corning dishes. The cells are incubated at 37° C. in a humidified atmosphere containing 5% CO2 and 95% air. Cytosine β-D-arabinoside (1 μM) is added 48 h after placing in culture, in order to prevent the development of non-neuronal cells. The cover slips are transferred into the experimental chambers for the patch-clamp studies after 7-10 days of culture. • Electrophysiology:
The measuring chambers (volume 800 μl) containing the cell preparation are placed on the platform of an inverted microscope (Olympus IMT2) equipped with Hoffman optics (Modulation Contrast, New York) and observed at the magnification of ×400. The chambers are continually perfused by gravity (2.5 ml/min) by means of a solution distributing device with 8 inlets, and the sole outlet of which, consisting of a polyethylene tube (500 μm aperture), is placed at least 3 mm from the cell studied. The “whole cell” configuration of the patch-clamp technique was used. The borosilicate glass pipettes (resistance 5-10 MOhms) are moved close to the cell by means of a 3D piezoelectric micromanipulator (Burleigh, PC1000). The overall currents (membrane potential fixed at −60 mV) are recorded with an Axopatch 1D amplifier (Axon Instruments, Foster city, Calif.), connected to a PC control by Pclamp8 software (Axon Instrument). The current traces are recorded on paper and simultaneously digitized (sampling frequency […]) and acquired on the hard drive of the PC.
The application of a micromolar solution of capsaicin causes, on the DRG cells (voltage fixed at −70 mV), an inward cationic current. In order to minimize the desensitization of the receptors, a minimum period of one minute is observed between two applications of capsaicin. After a controlled period (stabilization of the capsaicin response alone), the compounds to be tested are applied alone at a given concentration (concentration of 10 nM or of […]) for a period of 4 to 5 minutes, during which several capsaicin+compound tests are carried out (obtaining of maximum inhibition). The results are expressed as % inhibition of the control capsaicin response.

A further data set has as its target T2, TRPV1 receptors (Mus musculus, UniProt Q704Y3).
T2 construct: from tissue; host or cells: cornea of the living mouse (in vivo)
Briefly: Mouse corneal irritation test (capsaicin-induced eye rubbing). As to conditions: compound 500 μM, 2 μl local application to cornea 10 min before capsaicin 160 μM; eye rubs counted over 2 min. Type of data set: in vivo. The procedure:
Mouse Corneal Irritation Test
The irritant nature of capsaicin can be readily assessed at the level of the cornea since this organ is one of the most innervated by C fibres. In this context, according to preliminary experiments, the application of a very small amount of capsaicin (2 μl at a concentration of 160 μM) to the surface of the cornea of an animal results in a certain number of stereotyped behaviors associated with the irritation and that can be readily listed. Among these are: blinking of the eye, rubbing of the instilled eye with the ipsilateral forelimb, rubbing of the face with both forelimbs, scratching of the ipsilateral face with the hind limb. […]
In practice, the product to be tested, prepared at 25 mM in DMSO and diluted for its final use in physiological serum with 10% Tween 80, at the highest concentration of 500 μM, is administered by local application to the surface of the cornea in a volume of 2 μl, 10 minutes before the application of the capsaicin. […] Over the course of a period of observation of 2 minutes following the instillation, the number of times the instilled eye is rubbed by the ipsilateral forelimb is counted for each animal. For each given group, the percentage protection is calculated as follows: P=100−((average number of scratches of the group treated with the compound/average number of scratches of the group treated with the solvent)×100) […]

T1 sequence (O35433 whole entry): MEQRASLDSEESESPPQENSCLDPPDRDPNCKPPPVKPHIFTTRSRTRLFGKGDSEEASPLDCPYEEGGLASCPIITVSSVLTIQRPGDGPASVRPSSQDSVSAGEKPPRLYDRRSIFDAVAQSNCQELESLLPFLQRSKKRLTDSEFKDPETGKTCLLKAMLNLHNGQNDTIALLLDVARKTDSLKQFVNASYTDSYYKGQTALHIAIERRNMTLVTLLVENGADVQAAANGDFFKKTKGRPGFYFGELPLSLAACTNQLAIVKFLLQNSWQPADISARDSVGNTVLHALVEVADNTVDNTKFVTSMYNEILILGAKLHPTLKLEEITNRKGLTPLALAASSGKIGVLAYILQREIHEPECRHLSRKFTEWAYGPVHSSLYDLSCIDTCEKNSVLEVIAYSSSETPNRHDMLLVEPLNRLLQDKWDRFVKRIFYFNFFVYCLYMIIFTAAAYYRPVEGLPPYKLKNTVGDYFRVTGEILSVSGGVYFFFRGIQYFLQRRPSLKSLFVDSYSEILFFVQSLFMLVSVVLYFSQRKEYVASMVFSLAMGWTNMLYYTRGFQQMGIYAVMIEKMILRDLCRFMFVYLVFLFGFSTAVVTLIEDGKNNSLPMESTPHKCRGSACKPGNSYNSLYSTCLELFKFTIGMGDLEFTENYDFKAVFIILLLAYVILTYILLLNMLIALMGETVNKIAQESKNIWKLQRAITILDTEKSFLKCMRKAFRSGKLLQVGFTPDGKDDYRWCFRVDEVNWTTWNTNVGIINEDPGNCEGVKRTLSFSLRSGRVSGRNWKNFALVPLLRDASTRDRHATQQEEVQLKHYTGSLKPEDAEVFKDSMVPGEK
T2 sequence (Q704Y3 whole entry): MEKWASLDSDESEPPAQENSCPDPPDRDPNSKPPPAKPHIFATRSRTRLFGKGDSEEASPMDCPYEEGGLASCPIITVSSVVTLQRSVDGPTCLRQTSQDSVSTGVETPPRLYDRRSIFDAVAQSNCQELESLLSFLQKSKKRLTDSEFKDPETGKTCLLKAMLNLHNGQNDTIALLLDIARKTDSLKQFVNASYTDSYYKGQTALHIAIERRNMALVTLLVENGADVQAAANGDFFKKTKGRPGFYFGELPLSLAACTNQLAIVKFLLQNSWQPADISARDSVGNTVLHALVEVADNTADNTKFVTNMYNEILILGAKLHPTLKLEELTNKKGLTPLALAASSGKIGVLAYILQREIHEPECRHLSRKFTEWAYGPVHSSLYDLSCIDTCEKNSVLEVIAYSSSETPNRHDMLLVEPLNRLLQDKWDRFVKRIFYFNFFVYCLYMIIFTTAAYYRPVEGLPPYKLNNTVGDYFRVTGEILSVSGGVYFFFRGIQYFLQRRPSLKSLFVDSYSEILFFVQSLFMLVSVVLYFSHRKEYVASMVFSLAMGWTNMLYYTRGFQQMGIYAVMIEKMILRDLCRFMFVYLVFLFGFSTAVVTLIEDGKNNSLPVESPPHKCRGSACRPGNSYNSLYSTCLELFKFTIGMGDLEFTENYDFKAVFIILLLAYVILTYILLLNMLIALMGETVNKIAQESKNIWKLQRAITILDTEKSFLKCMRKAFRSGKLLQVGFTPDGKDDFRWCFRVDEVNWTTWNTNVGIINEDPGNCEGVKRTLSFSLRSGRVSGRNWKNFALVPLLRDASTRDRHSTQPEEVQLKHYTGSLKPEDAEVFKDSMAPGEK

With `O=C(Nc1ccc(N2CCC(O)C2)nc1)c1cc2cc(F)ccc2n1Cc1cccc(F)c1` (stereo not shown) [Compound 7, N-[6-(3-hydroxypyrrolidin-1-yl)pyridin-3-yl]-5-fluoro-1-(3-fluorobenzyl)-1H-indole-2-carboxamide], testing at 0.01 µM against TRPV1 receptor gave an inhibition of 85%. Molecule `O=C(Nc1cnc(N2CCCC2)nc1)c1cc2cc(F)ccc2n1Cc1cccc(F)c1` [Compound 21, N-[2-(pyrrolidin-1-yl)pyrimidin-5-yl]-5-fluoro-1-(3-fluorobenzyl)-1H-indole-2-carboxamide] came in with a melting point of 220 to 222 °C. Besides, at TRPV1 receptor, testing at 0.01 µM gave an inhibition of 79%. `O=C(Nc1ccc(N2CCC2)nc1)c1cc2cc(F)ccc2n1Cc1cccc(F)c1` [Compound 4, N-[6-(azetidin-1-yl)pyridin-3-yl]-5-fluoro-1-(3-fluorobenzyl)-1H-indole-2-carboxamide]: testing at 0.001 µM on TRPV1 receptor gave an inhibition of 89%. Turning to `O=C(Nc1ccc(N2CCCC2)nc1)c1cc2cc(F)ccc2n1Cc1cccc(F)c1` [Compound 2, N-[6-(pyrrolidin-1-yl)pyridin-3-yl]-5-fluoro-1-(3-fluorobenzyl)-1H-indole-2-carboxamide], the melting point lay within 199 to 201 °C. This molecule also gave an inhibition at 0.001 µM against TRPV1 receptor of 46%. Moreover, on TRPV1 receptors, the “% P 500 μM (percentage protection)” value was 72%.
